The nature of series [1]: UV-Vis absorption spectra in MeOH. The series is classed as physicochemical. The protocol:
(§1) The absorption spectra of (oxidopyridyl)porphyrins were recorded in HPLC grade MeOH on a Cary UV 60 (Agilent Technologies, Santa Clara, CA, USA), in a wavelength range of 300–700 nm. The fluorescence spectra in HPLC grade MeOH were recorded on a Cary Eclipse (Agilent Technologies) in a wavelength range of 500–800 nm after excitation at the Soret band wavelength (λ ~ 420 nm). The slits of the spectrometer were set to a bandpass of 5 nm for the excitation and 5 nm for the emission. To calculate the fluorescence quantum yields, the measurements were conducted on an FS5 Edinburgh Instruments spectrometer. Prior to taking the measurements, the solutions were purged with high-purity N2 for at least 15 min. The absorbance of the solutions was set to A < 0.1 at 405 nm and 550 nm, which settings were used for the excitation process. Emission was recorded from 550 to 800 nm, with slits set to the bandpass corresponding to 2 nm for the excitation, and 3 nm for the emission. Fluorescence quantum yield (ΦFL) was calculated in comparison to the tetraphenylporphyrin (TPP; ΦFL = 0.11 [23]) as a standard, according to Equation (S1) and following an equation previously described elsewhere.

A short description of series [2]: Fluorescence spectra and fluorescence quantum yield in MeOH. Format: physicochemical. As to conditions: excitation at Soret band. As to the method: as §1
For a further series, the system named is A375. Briefly: Photocytotoxicity, MTT assay. Format: cell-based, human. As to conditions: red light 643 nm 30 min; for IC50: 6 h incubation; for SI (IC50 (HDF) / IC50 (melanoma cells)) A375 100 µM CoCl2: CoCl2-induced hypoxia; for SI (IC50 (HDF) / IC50 (melanoma cells)) A375 No CoCl2: normoxia. As to the method: (§2) For (photo)cytotoxicity assays, stock solutions of porphyrins were prepared in DMSO and dissolved in DMEM to the final concentrations. The porphyrin incubation time was 6h. Irradiation of the cells was with red light (λ = 643 nm) for 30 min (light dose, 3.6 J/cm^2). Nonirradiated cells were used to test the dark toxicity. All measurements were performed in three individual experiments, and the results are shown as the proliferation (%) of the cells and were calculated as IC50 values.
(§3) The cytotoxicity of (oxidopyridyl)porphyrins was assessed by an MTT assay on the HDF, MeWo and A375 cell lines after 6 h of incubation with porphyrins, without irradiation, or after 30 min of irradiation with red light (λ = 643 nm), and under conditions of normoxia or hypoxia. To induce hypoxia, 100 µM of CoCl2 was added at least two hours before the porphyrins. […] Oxygen is also one of the substrates for the activity of prolyl hydroxylases; therefore, in both cases, the result is the blockage of hydroxylation of HIF-1α and, consequently, its increase and stabilisation, which, in the case of CoCl2-induced hypoxia, can be maintained for several hours.

A further series relates to HDF. Briefly: Photocytotoxicity, MTT assay. Format: cell-based, human. As to conditions: 6 h incubation, red light 643 nm 30 min. The protocol:
as §2, §3
(In general: Tetrazolium dyes change colour on reduction, which living cells bring about.)

The next series has as its system MeWo. Briefly: Photocytotoxicity, MTT assay. The series is classed as cell-based, human. The following applies: red light 643 nm 30 min; for IC50: 6 h incubation; for SI (IC50 (HDF) / IC50 (melanoma cells)) MeWo 100 µM CoCl2: CoCl2-induced hypoxia; for SI (IC50 (HDF) / IC50 (melanoma cells)) MeWo No CoCl2: normoxia. The protocol: as §2, §3
The test system of series [3] is HDF, MeWo and A375 cell lines. The experiment in a line: (Photo)cytotoxicity MTT assay, statements made for all cell lines. Format: cell-based, human. The following applies: irradiation 643 nm. The protocol: as §2, §3
[4] abbreviates: Homo sapiens, A-375, light or radiation study, 3.6 J/cm^2, 100 μM CoCl2 at least 2 h before porphyrin, read-out: IC50 A375 CoCl2.
Setting [5] is: Homo sapiens, A-375, light or radiation study, 3.6 J/cm^2, normoxia, read-out: IC50 A375 No CoCl2.
The mark [6] stands for this setting: Homo sapiens, HDF, light or radiation study, 3.6 J/cm^2, 100 μM CoCl2 at least 2 h before porphyrin, read-out: IC50 HDF CoCl2.
Where [7] appears, read: Homo sapiens, HDF, light or radiation study, 3.6 J/cm^2, normoxia, read-out: IC50 HDF No CoCl2.
Setting [8] is: Homo sapiens, MeWo, light or radiation study, 3.6 J/cm^2, 100 μM CoCl2 at least 2 h before porphyrin, read-out: IC50 MeWo CoCl2.
[9] abbreviates: Homo sapiens, MeWo, light or radiation study, 3.6 J/cm^2, normoxia, read-out: IC50 MeWo No CoCl2.
The mark [10] stands for this setting: 3.6 J/cm^2, 100 μM CoCl2 at least 2 h before porphyrin, read-out: IC50 A375 CoCl2.
Where [11] appears, read: 3.6 J/cm^2, normoxia, read-out: IC50 A375 No CoCl2.
[12] abbreviates: 3.6 J/cm^2, 100 μM CoCl2 at least 2 h before porphyrin, read-out: IC50 HDF CoCl2.
Setting [13] is: 3.6 J/cm^2, normoxia, read-out: IC50 HDF No CoCl2.
Where [14] appears, read: 3.6 J/cm^2, 100 μM CoCl2 at least 2 h before porphyrin, read-out: IC50 MeWo CoCl2.
Where [15] appears, read: 3.6 J/cm^2, normoxia, read-out: IC50 MeWo No CoCl2.

From PMC12382614, “(Oxidopyridyl)Porphyrins of Different Lipophilicity: Photophysical Properties, ROS Production and Phototoxicity on Melanoma Cells Under CoCl2-Induced Hypoxia” (Antioxidants, 2025) come the findings set out here.

Where two headings read alike, the source gives them in different places.

For `CCCCCCCCCC(=O)Nc1ccc(-c2c3nc(c(-c4ccc[n+]([O-])c4)c4ccc([nH]4)c(-c4ccc[n+]([O-])c4)c4nc(c(-c5ccc[n+]([O-])c5)c5ccc2[nH]5)C=C4)C=C3)cc1` [TOPyP3-C9H19, 5-(4-Decanamidophenyl)-10,15,20-tris(1-oxido-3-pyridyl)porphyrin], in series [1], the “ε Qx (0-0)” value came to 1500 M⁻¹ cm⁻¹, the “ε Qx (1-0)” value is 4900 M⁻¹ cm⁻¹, the “ε Qy (0-0)” value amounted to 5100 M⁻¹ cm⁻¹ and the “ε Qy (1-0)” value was 15400 M⁻¹ cm⁻¹. Further, in series [1], the “ε Soret (B)” value is 296400 M⁻¹ cm⁻¹, the “λabs Qx (0-0)” value came out at 645 nm, the “λabs Qx (1-0)” value came out at 588 nm and the “λabs Qy (0-0)” value was 548 nm. In addition, in series [1], the “λabs Qy (1-0)” value was found to be 512 nm and the “λabs Soret (B)” value is 417 nm. In series [2], the “λFL Q(0,0)” value is given as 648 nm and the “λFL Q(0,1)” value came to 713 nm. Also, in the series on A375 (setting [4]), the IC50 was 5.46 ± 1.48 µM. In addition, the IC50 in the series on A375 (setting [5]) worked out at 3.87 ± 0.45 µM. For the same molecule, in the series on A375, the “SI (IC50 (HDF) / IC50 (melanoma cells)) A375 100 µM CoCl2” value is given as 1.4 and the “SI (IC50 (HDF) / IC50 (melanoma cells)) A375 No CoCl2” value amounted to 0.9. Moreover, the IC50 in the series with HDF (setting [6]) was found to be 7.65 ± 0.06 µM. For the same molecule, the IC50 with HDF (setting [7]) came to 3.49 ± 0.45 µM. Also, the IC50 in the series with MeWo (setting [8]) was found to be 6.28 ± 0.82 µM. Moreover, in the series on MeWo (setting [9]), the IC50 amounted to 5.46 ± 1.08 µM. For the same molecule, in the series with MeWo, the “SI (IC50 (HDF) / IC50 (melanoma cells)) MeWo 100 µM CoCl2” value stood at 1.2 and the “SI (IC50 (HDF) / IC50 (melanoma cells)) MeWo No CoCl2” value turned out to be 0.6. In series [3] (1 µM, normoxia or CoCl2-induced hypoxia), the “phototoxicity / reduction of proliferation at 1 µM” value is given as “very low”.

Regarding `CCCCCCCCCCCCCC(=O)Nc1ccc(-c2c3nc(c(-c4ccc[n+]([O-])c4)c4ccc([nH]4)c(-c4ccc[n+]([O-])c4)c4nc(c(-c5ccc[n+]([O-])c5)c5ccc2[nH]5)C=C4)C=C3)cc1` [TOPyP3-C13H27, 5-(4-Tetradecanamidophenyl)-10,15,20-tris(1-oxido-3-pyridyl)porphyrin], in series [1], the “ε Qx (0-0)” value came to 2000 M⁻¹ cm⁻¹, the “ε Qx (1-0)” value came to 6000 M⁻¹ cm⁻¹, the “ε Qy (0-0)” value came out at 5800 M⁻¹ cm⁻¹ and the “ε Qy (1-0)” value worked out at 19300 M⁻¹ cm⁻¹. For the same molecule, in series [1], the “ε Soret (B)” value is 364600 M⁻¹ cm⁻¹, the “λabs Qx (0-0)” value came to 646 nm, the “λabs Qx (1-0)” value worked out at 588 nm and the “λabs Qy (0-0)” value was 547 nm. Also, in series [1], the “λabs Qy (1-0)” value was determined as 512 nm and the “λabs Soret (B)” value was 417 nm. In addition, in series [2], the “λFL Q(0,0)” value was 648 nm and the “λFL Q(0,1)” value worked out at 713 nm. Also, the IC50 with A375 (setting [4]) came out at 0.86 ± 0.06 µM. The IC50 in the series with A375 (setting [5]) turned out to be 0.78 ± 0.17 µM. In the series with A375, the “SI (IC50 (HDF) / IC50 (melanoma cells)) A375 100 µM CoCl2” value turned out to be 3.0 and the “SI (IC50 (HDF) / IC50 (melanoma cells)) A375 No CoCl2” value stood at 1.1. The IC50 with HDF (setting [6]) was 2.62 ± 0.19 µM. In addition, in the series with HDF (setting [7]), the IC50 worked out at 0.86 ± 0.04 µM. For the same molecule, in the series with MeWo (setting [8]), the IC50 came out at 1.79 ± 0.37 µM. Also, the IC50 in the series with MeWo (setting [9]) worked out at 1.04 ± 0.09 µM. For the same molecule, in the series with MeWo, the “SI (IC50 (HDF) / IC50 (melanoma cells)) MeWo 100 µM CoCl2” value is 1.5 and the “SI (IC50 (HDF) / IC50 (melanoma cells)) MeWo No CoCl2” value is 0.8.

Consider `CCCCCCCCCCCCCC(=O)Nc1ccc(-c2c3nc(c(-c4ccc[n+](C)c4)c4ccc([nH]4)c(-c4ccc[n+](C)c4)c4nc(c(-c5ccc[n+](C)c5)c5ccc2[nH]5)C=C4)C=C3)cc1` [TMPyP3-C13H27], for which the IC50 with A375 (setting [10]) was determined as 0.22 ± 0.08 µM; with A375 (setting [11]), 0.15 ± 0.06 µM; in the series on HDF (setting [12]), 0.99 ± 0.05 µM; in the series on HDF (setting [13]) it was 0.81 ± 0.05 µM; in the series with MeWo (setting [14]) it was 0.61 ± 0.16 µM; with MeWo (setting [15]) it was 0.43 ± 0.03 µM. Moreover, the IC50 in series [3] (with or without CoCl2, read-out: IC50 in all the tested cells) was not above 1 µM. Besides, the “SI (IC50 (HDF) / IC50 (melanoma cells)) A375 100 µM CoCl2” value in the series on A375 worked out at 4.5. Also, the “SI (IC50 (HDF) / IC50 (melanoma cells)) A375 No CoCl2” value in the series with A375 is on record as 5.4. For the same molecule, the “SI (IC50 (HDF) / IC50 (melanoma cells)) MeWo 100 µM CoCl2” value in the series with MeWo is recorded as 1.6. Further, in the series on MeWo, the “SI (IC50 (HDF) / IC50 (melanoma cells)) MeWo No CoCl2” value amounted to 1.9.

Regarding `CCCCCCCCCC(=O)Nc1ccc(-c2c3nc(c(-c4ccc[n+](C)c4)c4ccc([nH]4)c(-c4ccc[n+](C)c4)c4nc(c(-c5ccc[n+](C)c5)c5ccc2[nH]5)C=C4)C=C3)cc1` [TMPyP3-C9H19], the IC50 in the series with A375 (setting [10]) was 0.99 ± 0.13 µM; in the series on A375 (setting [11]), 0.67 ± 0.03 µM; in the series with HDF (setting [12]), 8.87 ± 0.02 µM; in the series with HDF (setting [13]) it was 7.09 ± 0.66 µM; in the series on MeWo (setting [14]) it was 6.81 ± 1.36 µM; in the series on MeWo (setting [15]), 3.52 ± 0.65 µM. In addition, the “SI (IC50 (HDF) / IC50 (melanoma cells)) A375 100 µM CoCl2” value in the series with A375 is reported as 9.0. Moreover, the “SI (IC50 (HDF) / IC50 (melanoma cells)) A375 No CoCl2” value in the series on A375 was 10.6. The “SI (IC50 (HDF) / IC50 (melanoma cells)) MeWo 100 µM CoCl2” value in the series with MeWo worked out at 1.3. The “SI (IC50 (HDF) / IC50 (melanoma cells)) MeWo No CoCl2” value with MeWo is 2.0.

A word on the IC50: it is the concentration needed to halve the response being measured.
